Article PMC7251097, “Aspartate/asparagine-β-hydroxylase: a high-throughput mass spectrometric assay for discovery of small molecule inhibitors” (Scientific Reports, 2020)
Structures can show the parent of a compound that is named as a salt. Where two headings read alike, the source gives them in different places. Values belong to the compound of their own block, whether it stands above or below them.

Target: T1, His6-AspH315–758 (human aspartate/asparagine-β-hydroxylase, AspH) (Homo sapiens, UniProt Q12797)
T1 construct: N-Terminally His6-tagged human AspH315–758 (His6-AspH315–758) was produced in E. coli BL21 (DE3) cells; made in house; host or cells: E. coli BL21 (DE3), pET-28a(+) vector
T1 sequence (Q12797 315-758): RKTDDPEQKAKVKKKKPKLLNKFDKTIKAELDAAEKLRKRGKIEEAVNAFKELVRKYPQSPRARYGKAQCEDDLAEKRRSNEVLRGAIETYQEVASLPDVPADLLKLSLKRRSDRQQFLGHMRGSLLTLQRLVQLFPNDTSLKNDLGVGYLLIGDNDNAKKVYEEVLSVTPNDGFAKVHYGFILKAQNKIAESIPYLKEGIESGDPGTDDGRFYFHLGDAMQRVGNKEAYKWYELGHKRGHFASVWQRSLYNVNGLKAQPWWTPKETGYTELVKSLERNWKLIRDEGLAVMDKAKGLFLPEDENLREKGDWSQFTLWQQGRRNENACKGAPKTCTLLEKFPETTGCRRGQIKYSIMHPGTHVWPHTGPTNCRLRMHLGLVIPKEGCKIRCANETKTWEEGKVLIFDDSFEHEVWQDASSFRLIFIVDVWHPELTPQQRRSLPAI
Experiment: SPE-MS AspH inhibition assay (LOPAC screen at fixed 20 μM and IC50 dose-response), hydroxylation of cyclic peptide hFX-CP101–119
Format: biochemical
Details: for IC50: 50 nM His6-AspH315–758, 1.0 μM hFX-CP101–119, 3 μM 2OG, 2 μM Fe(II), 50 mM HEPES pH 7.5, 20 °C, mean ± SD, n = 2 (2,4-PDCA n = 10), read-out: IC50; for Inhibition at 20 µM [%]: AspH activity, fixed compound concentration 20 μM, initial LOPAC screen, 0.5%v/v DMSO

[1] = LOPAC Plate 4, compound at 20 uM, substrate conversion
[2] = plate 5 (Pfitzer), test compounds at fixed 20 μM
[3] = plate 5 (Pfitzer), test compounds at fixed 20 μM, mean conversion DMSO 32.88
[4] = LOPAC compound at 20uM, conversion of substrate peptide
[5] = LOPAC compound at 20uM, plate 2, conversion of substrate peptide
[6] = LOPAC compound at 20uM, plate 2, normalised to DMSO and 2,4-PDCA controls
[7] = LOPAC Plate 4, compound at 20 uM
[8] = LOPAC compound at fixed 20 uM, plate 1, normalised to DMSO and 2,4-PDCA controls
[9] = LOPAC compound at fixed 20 uM, substrate conversion, plate 1
[10] = LOPAC compound at 20uM, plate 2, normalised to DMSO and 2,4-PDCA controls, read-out: Plate 2 (% inhibition)
[11] = LOPAC Plate 4, compound at 20 uM, read-out: % inhibition

% conversion [1]: 23.51% | Plate 5 (% inhibition) [2]: 13.59% | Plate 5 (% conversion) [3]: 31.69%
Compound: O=C(CCSCc1ccco1)NNC(=O)N1Cc2ccccc2Oc2ccc(Cl)cc21 [SC-51322]

Plate 5 (% inhibition) [2]: 9.86% | Plate 5 (% conversion) [3]: 32.96%
Compound: COc1cc(N)c(Cl)cc1C(=O)NC[C@@H]1CCN2CCC[C@@H]12 [SC-53116]

Compound: CN(CCCOc1ccc(Cc2ccccc2)cc1)CCC(=O)O.Cl [SC-57461A]
% conversion: 41.07% | Plate 5 (% conversion): 38.96% | Plate 5 (% inhibition): -7.77% | % inhibition (20 µM): -13.47%

Plate 3 (% conversion) [4]: 37.41% | Plate 5 (% inhibition) [2]: 0.65% | Plate 5 (% conversion) [3]: 36.09%
Compound: CS(=O)(=O)c1ccc(-n2nc(C(F)(F)F)cc2-c2ccc(F)cc2)cc1 [SC-58125]

% conversion [1]: 31.57%
Compound: Nc1nc2c(cnn2CCc2ccccc2)c2nc(-c3ccco3)nn12 [SCH 58261]

Plate 2 (% conversion) [5]: 38.71% | Plate 2 (% inhibition) [6]: -8.22%
Compound: Cc1nc2c(OCc3ccccc3)cccn2c1CC#N [SCH-28080]

IC50 (listed as C00007): 0.51 ± 0.08 µM | IC50: ~0.5 µM | Inhibition at 20 µM [%]: 100.6% | % inhibition [7]: 100.56% | % conversion [1]: 2.15%
Compound: CN=c1nc(-c2ccccc2)n(-c2ccccc2)s1 [SCH-202676, reference compound]

% inhibition [7]: -2.39% | % conversion [1]: 37.29%
Compound: CCN(CC)CCOC(=O)c1cc(Cl)c(N)cc1OC.Cl [SDZ-205,557 hydrochloride]

% conversion [1]: 30.83%
Compound: Cc1ccc(O)c(N=Nc2ccccc2)n1 [SIB 1757]

% conversion [1]: 34.05%
Compound: Cc1cccc(/C=C/c2ccccc2)n1 [SIB 1893]

Inhibition at 20 µM [%]: 95.1% | % inhibition [7]: 95.13% | % conversion [1]: 4.00%
Compound: Br.Cc1cccc(C2CN(C)CCc3c2cc(O)c(O)c3Cl)c1 (stereo not drawn) [SKF 83959 hydrobromide, reference compound]

Compound: CN1CCc2cccc(Cl)c2CC1 [SKF 86466]
% conversion: 40.52% | inhibition at 20 µM: -11.9%

Compound: O=C(O)/C=C\C(=O)O.O=C(O)/C=C\C(=O)O.c1cc(CN2CCCCC2)cc(OCCCNc2nc3ccccc3s2)c1 [SKF 95282 dimaleate]
% conversion: 24.14%

Plate 3 (% conversion) [4]: 49.23%
Compound: CCCC(C(=O)OCCN(CC)CC)(c1ccccc1)c1ccccc1.Cl [SKF-525A hydrochloride]

Plate 1 (% inhibition) [8]: 78.75% | Plate 1 (% conversion) [9]: 9.43%
Compound: Br.CN1Cc2sccc2C(c2ccc(O)c(O)c2)C1 (stereo not drawn) [SKF-89145 hydrobromide]

% conversion [1]: 30.76%
Compound: C=CCNc1ncnc2ccc(Br)cc12 [SMER28]

Compound: C=CCN1C[C@H](C)N([C@H](c2ccc(C(=O)N(CC)CC)cc2)c2cccc(OC)c2)C[C@H]1C [SNC80]
% conversion: 40.53% | % inhibition (20 µM): -11.89%

Plate 2 (% conversion) [5]: 37.53% | inhibition at 20 µM [10]: -4.71%
Compound: Oc1c2ccccc2c2c3c(cccc13)N=N2 [SP600125]

Compound: Nc1ncnc2c1ncn2C1CCCO1 (stereo not drawn) [SQ 22536]
% conversion: 37.42%

Compound: CCc1ccccc1OC[C@@H](O)CN[C@H]1CCCc2ccccc21.O=C(O)C(=O)O [SR 59230A oxalate]
% conversion: 13.86% | % inhibition (20 µM): 66.24%

Plate 2 (% conversion) [5]: 44.18% | Plate 2 (% inhibition) [6]: -24.57%
Compound: COc1cccc(OC)c1-c1cc(C(=O)NC2(C(=O)O)C3CC4CC(C3)CC2C4)nn1-c1ccc(C(=O)N(C)CCCN(C)C)cc1C(C)C (stereo not drawn) [SR 142948A]

Compound: Br.COc1ccc(-c2ccc(=N)n(CCCC(=O)O)n2)cc1 [SR-95531]
% conversion: 38.69% | % inhibition (20 µM): -6.50%

Plate 5 (% inhibition) [2]: 8.69%
Compound: Cc1cc(C)c(/C=C2\C(=O)Nc3ccc(Cl)cc32)[nH]1 [SU5614]

% inhibition [7]: 2.06% | % conversion [1]: 35.77%
Compound: CN(C)c1ccc(/C=C2\C(=O)Nc3ccccc32)cc1 [SU 4312]

% conversion [1]: 31.14% | inhibition at 20 µM [11]: 15.6%
Compound: CN(C)S(=O)(=O)c1ccc2c(c1)/C(=C/c1cc3c([nH]1)CCCC3)C(=O)N2 [SU 6656]

Compound: CCCCCCCCCC[Si](C)(C)CCC(=O)NC(Cc1ccc(C)cc1)c1ccccc1 (stereo not drawn) [Sandoz 58-035]
Plate 1 (% conversion): 37.15% | Plate 1 (% inhibition): -3.81%

Compound: C[n+]1cc2c3c(ccc2c2ccc4cc5c(cc4c21)OCO5)OCO3 [Sanguinarine chloride]
% conversion: 10.82%

Compound: Cl.NNC(N)=O [Semicarbazide hydrochloride]
% conversion: 22.57%

% conversion [1]: 40.54% | inhibition at 20 µM [11]: -11.9%
Compound: C[C@H](O)C(=O)C1=Nc2c(nc(N)[nH]c2=O)NC1 [Sepiapterin]

Compound: NCCc1c[nH]c2ccc(O)cc12 [Serotonin hydrochloride]
Plate 2 (% conversion): 31.81% | inhibition at 20 µM [10]: 12.4%

Compound: CCCc1nn(C)c2c(=O)[nH]c(-c3cc(S(=O)(=O)N4CCN(C)CC4)ccc3OCC)nc12.O=C(O)CC(O)(CC(=O)O)C(=O)O [Sildenafil citrate salt]
Plate 1 (% inhibition) [8]: 83.33% | Plate 1 (% conversion) [9]: 7.89%

Plate 3 (% conversion) [4]: 36.62%
Compound: CC(C)(C)C(=O)Oc1ccc(S(=O)(=O)Nc2ccccc2C(=O)NCC(=O)[O-])cc1.[Na+] [Sivelestat sodium salt hydrate]

Compound: CC(C)COC(=O)OCN1C(=O)CN(CCN2CC(=O)N(COC(=O)OCC(C)C)C(=O)C2)CC1=O [Sobuzoxane]
% conversion: 68.13%

Plate 3 (% conversion) [4]: 31.22%
Compound: NC(=O)C(=O)O [Sodium Oxamate]

Plate 1 (% inhibition) [8]: -13.94% | Plate 1 (% conversion) [9]: 40.55%
Compound: O=C1NC(=O)[C@@]2(CCOc3ccc(F)cc32)N1 [Sorbinil]

% conversion [1]: 36.29% | inhibition at 20 µM [11]: 0.53%
Compound: NCCCCNCCCN [Spermidine trihydrochloride]

% conversion [1]: 39.42% | inhibition at 20 µM [11]: -8.64%
Compound: NCCCNCCCCNCCCN [Spermine tetrahydrochloride]

% conversion [1]: 26.03% | inhibition at 20 µM [11]: 30.6%
Compound: O=C(CCCN1CCC2(CC1)C(=O)NCN2c1ccccc1)c1ccc(F)cc1 [Spiperone hydrochloride]

% conversion [1]: 41.84% | inhibition at 20 µM [11]: -15.7%
Compound: CC(=O)S[C@@H]1CC2=CC(=O)CC[C@]2(C)[C@H]2CC[C@@]3(C)[C@@H](CC[C@@]34CCC(=O)O4)[C@H]12 [Spironolactone]

Compound: O=[N+]([O-])c1ccc2c(c1)S(=O)(=O)C=C2 [Stattic]
% conversion: 34.71% | % inhibition (20 µM): 5.15%

% conversion [1]: 37.50% | inhibition at 20 µM [11]: -3.02%
Compound: C=C1C[C@@]23CC[C@H]4[C@@](C)(CCC[C@@]4(C)C(=O)O)[C@@H]2CC[C@]1(O)C3 [Steviol]

Compound: C[N+](C)(C)CCOC(=O)CCC(=O)OCC[N+](C)(C)C [Succinylcholine chloride]
% conversion: 39.43% | inhibition at 20 µM: -8.69%

% conversion [1]: 26.59%
Compound: Nc1ccc(S(=O)(=O)Nc2ccnn2-c2ccccc2)cc1 [Sulfaphenazole]

% conversion [1]: 33.98%
Compound: CC1=C(CC(=O)O)c2cc(F)ccc2/C1=C\c1ccc(S(C)(=O)=O)cc1 [Sulindac sulfone]

% conversion [1]: 35.56% | inhibition at 20 µM [11]: 2.67%
Compound: CC1=C(CC(=O)O)c2cc(F)ccc2/C1=C\c1ccc([S+](C)[O-])cc1 (stereo not drawn) [Sulindac]

Plate 2 (% conversion) [5]: 11.67% | inhibition at 20 µM [10]: 72.5%
Compound: CCN(CC)CCNC(=O)c1c(C)[nH]c(/C=C2\C(=O)Nc3ccc(F)cc32)c1C [Sunitinib malate]

Plate 5 (% inhibition) [2]: 67.34% | Plate 5 (% conversion) [3]: 13.39%
Compound: CCN(CC)CCNC(=O)c1c(C)[nH]c(/C=C2\C(=O)Nc3ccc(F)cc32)c1C [Sunitinib]

Plate 1 (% inhibition) [8]: -3.46% | Plate 1 (% conversion) [9]: 37.03%
Compound: CC(=O)/C=C1\C(=O)N(C)c2ccccc21 [Supercinnamaldehyde]

Inhibition at 20 µM [%]: 103.3% | % conversion [1]: 1.22%
Compound: Cc1ccc(C(=O)Nc2ccc(S(=O)(=O)[O-])c3cc(S(=O)(=O)[O-])cc(S(=O)(=O)[O-])c23)cc1NC(=O)c1cccc(NC(=O)Nc2cccc(C(=O)Nc3cc(C(=O)Nc4ccc(S(=O)(=O)[O-])c5cc(S(=O)(=O)[O-])cc(S(=O)(=O)[O-])c45)ccc3C)c2)c1.[Na+].[Na+].[Na+].[Na+].[Na+].[Na+] [Suramin sodium salt, reference compound]

Plate 3 (% conversion) [4]: 31.53%
Compound: O=C(Nc1ccncc1)c1cc([N+](=O)[O-])ccc1Cl [T0070907]

Compound: Brc1c(Br)c(Br)c2[nH]cnc2c1Br [TBBz]
Plate 1 (% conversion): 32.96% | Plate 1 (% inhibition): 8.67%

IC50: 6.66 ± 0.69 µM
Compound: O=C(O)CCN(O)C(=O)CCCCCCCCC1CC1 [TC-E 5002, reference compound]

Compound: Clc1cnc(Oc2ccc(Oc3ncc(Cl)cc3Cl)cc2)c(Cl)c1 [TCPOBOP]
% conversion: 30.30%
